Where a name gives a salt, the structure may show the parent alone.
System: AMPKα
Assay: Measurement of AMPK-activation effect (AMPKα Thr172 phosphorylation immunoassay in MCF7 cells)
Type: cell-based, human
Conditions: 10 uM, 24 hours, relative to untreated cells
Method: MCF7 cells derived from human breast cancer cells (commercially available from the Korean Cell Line Bank) were used, and the AMPK (5′-AMP-activated protein kinase alpha)-activation effect of the biguanide derivative was confirmed using an AMPKα immunoassay kit (Invitrogen, Catalog No. KH00651).
MCF7 cells were cultured in a DMEM medium supplemented with 10% fetal bovine serum. Thereafter, the cultured MCF7 cells were put into a 6-well plate with approximately 5×10^5 cells per well and cultured in an incubator supplied with 5% CO2. Culture media were treated with the derivatives synthesized in the examples at contents of 5, 10 and 50 μM, and then cultured for 24 hours. Metformin hydrochloride was used as the control, and the culture media were treated with 0.05, 0.5, 1, 2, 5 and 10 mM metformin hydrochloride, and then tested in the same manner as described in the derivatives synthesized in the examples. Subsequently, the cells were lysed according to a method presented in the operation manual of the AMPKα immunoassay kit, and 20 μg of a cell lysate was then yielded through protein assay. Thereafter, the AMPK activation effect was obtained by determining the degree of phosphorylation of 172nd threonine residue (Thr172) of the AMPKα from the cell lysate according to the method presented in the operation manual of the AMPKα immunoassay kit. […] A curve graph showing AMPK activation according to the concentration of the treated compounds was plotted based on the obtained AMPKα activation results, the concentration (activation concentration 150, AC150) value of the compound whose AMPK activation reached 150% was calculated using a GraphPad Prism 5.0 program, and the degrees of AMPK activation were obtained when concentrations of the treated biguanide derivatives were 10 μM and 50 μM and the metformin hydrochloride was 50 μM.

| Structure (SMILES) | AMPK activation effect 10 uM (%) |
| --- | --- |
| Cl.N=C(NCc1ccco1)NC(=N)N1CCCCC1 [Example 23, N1-piperidine-N5-(furan-2-ylmethyl)biguanide hydrochloride] | 112 |
| Cl.N=C(NCc1cccs1)NC(=N)N1CCCCC1 [Example 24, N1-piperidine-N5-(thiophene-2-ylmethyl)biguanide hydrochloride] | 64 |
| Cc1ccc(CNC(=N)NC(=N)N2CCCCC2)cc1.Cl [Example 27, N1-piperidine-N5-(4-methyl)benzyl biguanide hydrochloride] | 435 |
| Cl.N=C(NCc1ccc(C(F)(F)F)cc1)NC(=N)N1CCCCC1 [Example 39, N1-piperidine-N5-(4-trifluoromethyl)benzyl biguanide hydrochloride] | 476 |
| CN1CCN(C(=N)NC(=N)NCc2ccc(OC(F)(F)F)cc2)CC1.Cl [Example 43, N1-(4-methyl)piperazine-N5-(4-trifluoromethoxy)benzyl biguanide hydrochloride] | 669 |

Same assay, conditions: 50 uM, 24 hours, relative to untreated cells

| Structure (SMILES) | AMPK activation effect 50 uM (%) |
| --- | --- |
| CCCCNC(=N)NC(=N)N1CCCCC1.Cl [Example 11, N1-piperidine-N5-butyl biguanide hydrochloride] | 130 |
| Cl.N=C(NCc1ccco1)NC(=N)N1CCCCC1 [Example 23, N1-piperidine-N5-(furan-2-ylmethyl)biguanide hydrochloride] | 298 |
| Cl.N=C(NCc1cccs1)NC(=N)N1CCCCC1 [Example 24, N1-piperidine-N5-(thiophene-2-ylmethyl)biguanide hydrochloride] | 112 |
| Cl.N=C(NCc1cccc2ccccc12)NC(=N)N1CCCCC1 [Example 25, N1-piperidine-N5-(naphthalene-1-yl)methyl biguanide hydrochloride] | 428 |
| Cc1ccc(CNC(=N)NC(=N)N2CCCCC2)cc1.Cl [Example 27, N1-piperidine-N5-(4-methyl)benzyl biguanide hydrochloride] | 947 |
| Cl.N=C(NCc1cccc(F)c1)NC(=N)N1CCCCC1 [Example 29, N1-piperidine-N5-(3-fluoro)bezyl biguanide hydrochloride] | 131 |
| Cl.N=C(NCc1ccc(C(F)(F)F)cc1)NC(=N)N1CCCCC1 [Example 39, N1-piperidine-N5-(4-trifluoromethyl)benzyl biguanide hydrochloride] | 615 |
| CN1CCN(C(=N)NC(=N)NCc2ccc(OC(F)(F)F)cc2)CC1.Cl [Example 43, N1-(4-methyl)piperazine-N5-(4-trifluoromethoxy)benzyl biguanide hydrochloride] | 854 |
| CN(C)C(=N)N=C(N)N [Metformin hydrochloride, reference compound] | 130 |

Same assay, conditions: 24 hours

| Structure (SMILES) | AC150 (concentration at which AMPK activation reached 150%) [µM] |
| --- | --- |
| CCCCNC(=N)NC(=N)N1CCCCC1.Cl [Example 11, N1-piperidine-N5-butyl biguanide hydrochloride] | >50 |
| Cl.N=C(NCc1ccco1)NC(=N)N1CCCCC1 [Example 23, N1-piperidine-N5-(furan-2-ylmethyl)biguanide hydrochloride] | 15.8 |
| Cl.N=C(NCc1cccs1)NC(=N)N1CCCCC1 [Example 24, N1-piperidine-N5-(thiophene-2-ylmethyl)biguanide hydrochloride] | >50 |
| Cl.N=C(NCc1cccc2ccccc12)NC(=N)N1CCCCC1 [Example 25, N1-piperidine-N5-(naphthalene-1-yl)methyl biguanide hydrochloride] | 8.0 |
| Cc1ccc(CNC(=N)NC(=N)N2CCCCC2)cc1.Cl [Example 27, N1-piperidine-N5-(4-methyl)benzyl biguanide hydrochloride] | 2.3 |
| Cl.N=C(NCc1cccc(F)c1)NC(=N)N1CCCCC1 [Example 29, N1-piperidine-N5-(3-fluoro)bezyl biguanide hydrochloride] | >50 |
| Cl.N=C(NCc1ccc(C(F)(F)F)cc1)NC(=N)N1CCCCC1 [Example 39, N1-piperidine-N5-(4-trifluoromethyl)benzyl biguanide hydrochloride] | 0.9 |
| CN1CCN(C(=N)NC(=N)NCc2ccc(OC(F)(F)F)cc2)CC1.Cl [Example 43, N1-(4-methyl)piperazine-N5-(4-trifluoromethoxy)benzyl biguanide hydrochloride] | 6.4 |
| CN(C)C(=N)N=C(N)N [Metformin hydrochloride, reference compound] | 188.3 |

System: HCT116 cells
Assay: Measurement of effect of inhibiting cancer cell proliferation (MTT)
Type: cell-based
Conditions: Homo sapiens, HCT-116, 100 uM, 48 hours, read-out: Cell Growth Inhibition (%) at 100 uM
Source text: HCT116 cells derived from human colorectal cancer (commercially available from the Korean Cell Line Bank) were used, and the effect of inhibiting cancer cell proliferation of the biguanide derivative was confirmed by measuring the concentration value (cell growth inhibition concentration, GIC50) at which cell growth was inhibited by 50% using a 3-(4,5-dimethylthiazol-2-yl)-2,5-[…] bromide (MTT) reagent.
First, HCT116 cells were put on a 96-well plate and cultured in a DMEM medium containing 10% fetal bovine serum for 16 hours so that the cellcount in each well was approximately 5,000. Subsequently, to obtain the GIC50 value of each compound, culture media were treated with 100 μM, 25 μM, 6.25 μM, 1.56 μM or 0.39 μM of the compound, and then cultured for 48 hours. At this time, some of the compounds were treated with 200 μM instead of 100 μM. Metformin hydrochloride was used as the control, and the culture media were treated with 25, 12.5, 2.5, 0.5, 0.1 mM metformin hydrochloride, and then tested in the same manner as described in the derivatives synthesized in the examples. In order to determine whether the cells survived after treatment with the compound, MTT was added to the culture media which were then cultured for another 3 hours. Formed formazane crystals were dissolved using dimethyl sulfoxide (DMSO), and the absorbance of the resulting solution was measured at 560 nm. After the 48-hours culture, the ratio of the cell count cultured on a well plate not treated with the compound to the living cell count on a well plate treated with the compounds synthesized in the examples was indicated as cell viability (%) according to each treated concentration. A cell viability curve graph was plotted and the concentration (GIC50) value of the compound at which the growth was inhibited by 50% was calculated to confirm the effect of inhibition of cancer cell proliferation. Also, the cell growth viability (%) when the concentration of the treated biguanide derivative and the metformin hydrochloride as the control were 100 uM was shown.

| Structure (SMILES) | inhibition at 100 µM [%] |
| --- | --- |
| CCCCNC(=N)NC(=N)N1CCCCC1.Cl [Example 11, N1-piperidine-N5-butyl biguanide hydrochloride] | 42.7 |
| Cl.N=C(NCc1ccco1)NC(=N)N1CCCCC1 [Example 23, N1-piperidine-N5-(furan-2-ylmethyl)biguanide hydrochloride] | 39.5 |
| Cl.N=C(NCc1cccs1)NC(=N)N1CCCCC1 [Example 24, N1-piperidine-N5-(thiophene-2-ylmethyl)biguanide hydrochloride] | 51.7 |
| Cl.N=C(NCc1cccc2ccccc12)NC(=N)N1CCCCC1 [Example 25, N1-piperidine-N5-(naphthalene-1-yl)methyl biguanide hydrochloride] | 96.6 |
| Cc1ccc(CNC(=N)NC(=N)N2CCCCC2)cc1.Cl [Example 27, N1-piperidine-N5-(4-methyl)benzyl biguanide hydrochloride] | 64.9 |
| Cl.N=C(NCc1ccc(C(F)(F)F)cc1)NC(=N)N1CCCCC1 [Example 39, N1-piperidine-N5-(4-trifluoromethyl)benzyl biguanide hydrochloride] | 78.9 |
| CN1CCN(C(=N)NC(=N)NCc2ccc(OC(F)(F)F)cc2)CC1.Cl [Example 43, N1-(4-methyl)piperazine-N5-(4-trifluoromethoxy)benzyl biguanide hydrochloride] | 97.7 |
| CN(C)C(=N)N=C(N)N [Metformin hydrochloride, reference compound] | 1.8 |

Same assay, conditions: Homo sapiens, HCT-116, 48 hours

| Structure (SMILES) | GI50 [µM] |
| --- | --- |
| CCCCNC(=N)NC(=N)N1CCCCC1.Cl [Example 11, N1-piperidine-N5-butyl biguanide hydrochloride] | > 100 |
| Cl.N=C(NCc1ccco1)NC(=N)N1CCCCC1 [Example 23, N1-piperidine-N5-(furan-2-ylmethyl)biguanide hydrochloride] | > 100 |
| Cl.N=C(NCc1cccs1)NC(=N)N1CCCCC1 [Example 24, N1-piperidine-N5-(thiophene-2-ylmethyl)biguanide hydrochloride] | 93.2 |
| CN1CCN(C(=N)NC(=N)NCc2ccc(OC(F)(F)F)cc2)CC1.Cl [Example 43, N1-(4-methyl)piperazine-N5-(4-trifluoromethoxy)benzyl biguanide hydrochloride] | > 100 |

Results, then the molecule that gave them:

| GI50 [µM] | Structure (SMILES) |
| --- | --- |
| 28 | Cl.N=C(NCc1cccc2ccccc12)NC(=N)N1CCCCC1 [Example 25, N1-piperidine-N5-(naphthalene-1-yl)methyl biguanide hydrochloride] |
| 70.5 | Cc1ccc(CNC(=N)NC(=N)N2CCCCC2)cc1.Cl [Example 27, N1-piperidine-N5-(4-methyl)benzyl biguanide hydrochloride] |
| 16.2 | Cl.N=C(NCc1ccc(C(F)(F)F)cc1)NC(=N)N1CCCCC1 [Example 39, N1-piperidine-N5-(4-trifluoromethyl)benzyl biguanide hydrochloride] |
| 2850 | CN(C)C(=N)N=C(N)N [Metformin hydrochloride, reference compound] |

System: not given
Assay: not given
Conditions: not given

| melting point [°C] | Structure (SMILES) |
| --- | --- |
| 197 to 199 | Cl.N=C(NCc1cccnc1)NC(=N)N1CCCCC1 |
| 156 to 158 | Cl.N=C(NCc1ccccc1)NC(=N)N1CCCCC1 |
| 113 to 114 | CCCCNC(=N)NC(=N)N1CCCCC1.Cl [Example 11, N1-piperidine-N5-butyl biguanide hydrochloride] |
| 251 to 252 | Cl.N=C(NCc1ccco1)NC(=N)N1CCCCC1 [Example 23, N1-piperidine-N5-(furan-2-ylmethyl)biguanide hydrochloride] |
| 220 to 221 | Cl.N=C(NCc1cccs1)NC(=N)N1CCCCC1 [Example 24, N1-piperidine-N5-(thiophene-2-ylmethyl)biguanide hydrochloride] |
| 241 to 243 | Cc1ccc(CNC(=N)NC(=N)N2CCCCC2)cc1.Cl [Example 27, N1-piperidine-N5-(4-methyl)benzyl biguanide hydrochloride] |
| 171 to 172 | Cl.N=C(NCc1cccc(F)c1)NC(=N)N1CCCCC1 [Example 29, N1-piperidine-N5-(3-fluoro)bezyl biguanide hydrochloride] |
